Where two headings read alike, the source gives them in different places. Residues, ends and D or L forms follow the SMILES beside them.
Key:
Format in all cases: in vivo, mice
[1] = system: Arachidonic Acid Induced Inflammation; conditions: mouse, in vivo
Protocol: (§1) The anti-inflammatory properties of CT-112 (SEQ. ID NO: 1) were assessed using a standardized assay for anti-inflammatory activity, i.e., the mouse ear model in which arachidonic acid (AA) is used to induce an inflammatory reaction (Young et al., 1984, J. Invest. Dermatol. 82:367-371; Doherty, et al., 1988, J. Invest. Dermatol. 91:298-302).
(§2) Female mice (C57BL/6UAF, Charles River Breeding Laboratories, approximately 15-18 g) were obtained and acclimated for 2 weeks prior to use. The animals were approximately 14 weeks old at the start of the study.
(§3) To prepare minipumps for implantation, CT-112 (SEQ. ID NO: 1) was dissolved in PBS. The material was loaded into Alzet minipumps set to deliver 0.05 (5 animals), 0.1 (10 animals), 1 (10 animals), or 2.5 (5 animals) mg of CT-112 (SEQ. ID NO: 1) per animal per day. Minipumps for implantation into control animals contained only PBS. As a positive control, one set of 10 mice received 100 mg/kg of phenidone, a potent 5-lipoxygenase inhibitor which acts as an anti-inflammatory agent, 15 min prior to challenge with AA.
(§4) For subcutaneous implantation of minipumps, animals were anesthetized with Ketamine/Xylazine. The Ketamine (Aveco Lot #440140) was injected at 80 mg/kg and the Xylazine (Rugby Laboratories Lot #26040-B) at 16 mg/kg and the Alzet pumps were implanted subcutaneously in the dorsothoracic area. Animals were allowed to recover and then housed and given food and water ad libitum for 5 days.
(§5) On the sixth day following pump implantation, 0.01 ml of AA was applied to the inner and outer surfaces of the right ear by means of an automatic microliter pipette. One hr following AA application, the mice were sacrificed and ear thickness was measured with a Mitutoyo No. 7300 Gauge Caliper. The left ears were also measured as an internal control.
(§6) Mice were implanted with Alzet mini-pumps set to deliver 60 mg/kg/day for either 7, 3, or 1 days. A separate group of 5 mice received 3 intraperitoneal injections of CT-112 (60 mg/kg/injection) at 24, 1 and 0.25 hr prior to AA challenge. CT-112 (SEQ. ID NO: 1) was prepared for injection by dissolving the compound in Dulbecco's PBS to give a final CT-112 (SEQ. ID NO: 1) concentration of 5 mg/ml. The control mice were implanted with Alzet minipumps that delivered PBS for 7 days. The AA challenge was the same as described supra in Example 7.
(§7) Administration of CT-112 (SEQ. ID NO: 1) (60 mg/kg/injection) via multiple intraperitoneal injections was performed at the following times prior to AA challenge: • a) 6, 3, 1 and 0.25 hr; • b) 3, 1 and 0.25 hr; or • c) 1 and 0.25 hr.
(§8) In addition, the effect of a single administration of CT-112 (SEQ. ID NO: 1) (60 mg/kg) by intraperitoneal injection was performed at either 1 or 3 hr prior to AA challenge. Control mice had Alzet minipumps implanted to deliver PBS for 7 days prior to AA challenge. The AA challenge was the same as described supra in Example 7. The results of the multiple dosing regimens and the 1 hr and 3 hr single dosing regimens were compared to the anti-inflammatory activity of CT-112 (SEQ. ID NO: 1) delivered via Alzet minipump set to deliver 60 mg/kg/day for 7 days using 5 animals per treatment.
In a separate experiment, the effect of multiple intraperitoneal injections of CT-112 (SEQ. ID NO: 1) at either 6, 3, 1 and 0.25 hr, or 16, 3, 1 and 0.25 hr prior to AA challenge was assessed. The results of both multi-dosing regimens were compared to both phenidone (100 mg/kg administered 15 min prior to AA challenge) and CT-112 (SEQ. ID NO: 1) administered via Alzet mini-pump (60 mg/kg/day for 7 days). For this latter study, the number of animals receiving the single injection of CT-112 (SEQ. ID NO: 1) was increased from 5 to 10.
Administration to mice of CT-112 (SEQ. ID NO: 1) (60 mg/kg/injection) via multiple subcutaneous injections prior to AA challenge was performed at: • a) 6, 3, 1 and 0.25 hr; • b) 3, 1 and 0.25 hr; or • c) 1 and 0.25 hr. […]

[2] = system: Arachidonic Acid Induced Myeloperoxidase Activity in Mouse Ear; experiment: myeloperoxidase activity in AA-treated mouse ear tissue (marker for PMNs); parameters: dose or concentration left out as unconfirmed; conditions: Phenidone 100
Protocol: Myeloperoxidase activity in ear tissue was measured as a marker for the presence or absence of polymorphonuclear leukocytes (PMNs) (Barone et al., 1991, J. Neurosci. Res. 29:336-345). After measurement of ear thickness, ears were dissected from the mice and homogenized in 50mM Tris-HCL, pH 7.4 at 4°C to give a 10% (w/v) homogenate. Aliquots of the homogenate were used to determine the amount of myeloperoxidase activity present in the tissue using o-dianisidine (Sigma Chem Co., St. Louis MO) and hydrogen peroxide as substrates and monitoring chromophore generation at 460 nm (Barone et al., 1991, J. Neurosci. Res. 29:336-345).

[3] = system: Arachidonic Acid Induced Inflammation; experiment: mouse ear model, arachidonic acid (AA) induced inflammation, ear thickness
Protocol: as §1, §2, §3, §4, §5, §6, §7, §8
In a separate experiment, the effect of multiple intraperitoneal injections of CT-112 (SEQ. ID NO: 1) at either 6, 3, 1 and 0.25 hr, or 16, 3, 1 and 0.25 hr prior to AA challenge was assessed. […]

[4] = system: Delayed Type Hypersensitivity; experiment: mouse model of delayed-type hypersensitivity induced by DNCB; conditions: Prednisone ip 25 mg/kg, 2 hr prior to challenge
Protocol: CT-112 (SEQ. ID NO: 1) was tested for its ability to modulate the immune response in a mouse model of delayed hypersensitivity (Filipp et al., 1984, Allergy, 39: 499-507; Diezel et al., 1989 J. Invest. Dermatol. 93:322-326). The mice used in this study were 8-wk old hairless females (Jackson Laboratories). The mice were sensitized to a contact allergen (1-chloro-2,4-dinitrobenzene, DNCB) by painting the dorsothoracic region twice daily for 5 consecutive days with 50 µl of 0.5% DNCB in 75% acetone:25% vegetable oil. The animals were allowed to rest for 24 hr prior to challenge with DNCB. On the sixth day after initiation of the sensitization treatments, the animals were challenged with 50 µl of DNCB solution applied to the left ear. After 24 hrs, the ear thickness was determined and compared to the unchallenged ear.
The treatment groups were as follows: • a) PBS control; • b) Prednisone (intraperitoneal injection of 25 mg/kg, 2 hr prior to challenge); • c) 7-day pump (60 mg CT-112/kg/24 hr); • d) CT-112 (intraperitoneal injections of 60 mg/kg/injection at 3, 1, and 0.25 hr prior to challenge and 3, 6 and 21 hr post-challenge); • e) DMSO control (topical application of 50 µl at 3, 1 and 0.25 hr prior to challenge; and • f) CT-112 in DMSO (20 mg/ml, topical application of 50 µl at 3, 1, and 0.25 hr prior to challenge and 3, 6 and 21 hr post-challenge).

[5] = Table V, Phenidone 100 mg/kg 15 min prior to AA

## CC(C)[C@H](NC(=O)[C@H](CCC(N)=O)NC(=O)[C@H](CO)NC(=O)[C@@H](NC(=O)[C@@H](N)[C@@H](C)O)[C@@H](C)O)C(=O)O [CT-114, Thr-Thr-Ser-Gln-Val] (H-TTSQV-OH)
[1]; 6 mg/kg/day
  % Inhibition of Inflammation: 59.3%
[1]; 60 mg/kg/day
  % Inhibition of Inflammation: 62.4%

## O=C1CCN(c2ccccc2)N1 [Phenidone]
[2]
  Myeloperoxidase Activity: 14.5 ± 8.6 µmole of chromophore formed/min
[3]; Phenidone 100mg/kg, 15 min prior to AA, 1 hr after AA
  Ear Thickness: 0.01176 ± 0.0008 (10) in
[3]; Table III, Phenidone 100 mg/kg
  % Inhibition of Inflammation: 88%
  Thickness Difference (Left-Right): 0.00073 ± 0.00153 in
[3]; [5]
  % Inhibition of Inflammation: 84.2%
  Thickness Difference (Left-Right): 0.00102 ± 0.00038(5) in

## C[C@]12C=CC(=O)C=C1CC[C@@H]1[C@@H]2C(=O)C[C@@]2(C)[C@H]1CC[C@]2(O)C(=O)CO [Prednisone]
[4]
  % Inhibition of Inflammation: 96.7%
[4]; 24 hrs after DNCB
  Thickness Difference (Left-Right): 0.00014 ± 0.000446 in

Source: patent EP0714404B1, “ANTI-INFLAMMATORY PEPTIDES” (CURATIVE TECHNOLOGIES, INC., priority 1993, dated 1995)
